{"source": "paper PMC8147254", "about": "“Efflux at the Blood-Brain Barrier Reduces the Cerebral Exposure to Ochratoxin A, Ochratoxin α, Citrinin and Dihydrocitrinone” (Toxins, 2021)", "key": {"in vitro": {"assay": "in vitro", "details": "pig", "method": "(§1) For transfer studies from the apical (blood) side to the basolateral compartment (brain side), 1 µM of mycotoxins were applied on the apical side of the Transwell® filter compartment. Over 48 h, OTA, OTα, CIT, and DHCIT were quantified at eight points in time in both compartments by HPLC-MS/MS in order to investigate the transfer and potential metabolism of the applied compounds.\n(§2) Both devices were operated with Analyst 1.6.2 software (SCIEX Germany GmbH, Darmstadt, Germany). Chromatographic separation of OTA, OTα, CIT, and DHCIT was performed on a 100 mm × 2.1 mm Halo RP-Amide 2.7 µm column (Advanced Materials Technology, Wilmington, NC, USA) equipped with an Ultra filter (KrudKatcher, Phenomenex, Aschaffenburg, Germany) at 40 °C using a gradient of ACN+1% formic acid (FA) (Solvent A) and H2O+1% FA (solvent B) at a flow rate of 250 µL/min. […] Afterwards, the column was re-equilibrated for 4 min. An injection volume of 5 µL was used. A diverter valve was used to exclude the first 5 min of the HPLC run from the mass spectrometer and reduce matrix contamination. The Ion Drive Turbo V ion source was heated to 400 °C. Further conditions were curtain gas (CUR) 35 psi N2, nebuliser gas (GS1) 45 psi N2, heater gas (GS2) 55 psi N2, and ion spray voltage 4500 V in positive and −4500 V in negative ionization mode; each MRM transition was monitored for 5 ms. Detailed mass spectrometer settings are given in the Supplementary Materials of this article.\n(§3) The permeability coefficients p were calculated according to (1) as described in detail in [15]:(1) p[cm/s]=cbas[%]/[…]·Vap[cm³]/A[cm^2]·t[s] where cbas is the mycotoxin concentration in the basolateral compartment at a certain time t [s]. The initial concentration in the apical compartment is c0 h,ap and Vap is the volume of the compartment at the beginning of the experiment. A is the area of the filter insert membrane. The resulting permeability of the mycotoxin across the cell monolayer pc was calculated as shown in (2):(2) 1/pc [cm/s]=1/pc+f [cm/s][…]1/pf[cm/s] where pc+f is the permeability coefficient of the transfer study and pf the permeability coefficient of the cell-free polycarbonate filter membrane. […]\n(§4) serum) and centrifugation at 220 × g at 20 °C for 10 min the supernatant was removed. Fresh complete medium was added and the cell pellet was gently resuspended twice to a final concentration of 150,000 cells/mL. 100 μ L of this suspension were seeded on rat‐tail collagen coated 96‐well plates (rat‐ tail collagen was isolated as described previously) resulting in 15,000 cells per well. PBCEC were incubated at 37 °C, 5% CO2 in a saturated humidified atmosphere. After 48 h the medium was replaced with serum‐free medium (DMEM/Ham’s F‐12 with 100 U/mL penicillin, 100 μg/mL […]\n(§5) Aldrich, Steinheim, Germany)). […]\n(§6) The thawing and seeding procedure was performed according to the protocol already described for the viability test as previously published. Instead of using 96‐well plates, 500 μL PBCEC suspension (500,000 cells/mL) were seeded in the upper (apical) compartment of a 12‐well Transwell®"}, "PBCEC monolayer": {"test_system": "PBCEC monolayer", "assay": "in vitro", "details": "for amount in the apical compartment after 48 h, of initially applied amount / amount transferred to the basolateral compartment after 48 h, of initially applied amount: 1 µM (760 pmol) apical, n = 9", "method": "as §1, §2, §3, §4, §5, §6"}, "PBCEC [1]": {"test_system": "PBCEC", "details": "for cytotoxic or barrier-weakening (adverse) effects / effect on cellular viability: up to 10 µM"}, "PBCEC [2]": {"test_system": "PBCEC", "details": "48 h"}, "[3]": {"details": "13 German volunteers; cited from earlier work"}, "[4]": {"details": "50 German volunteers, dried blood spot; cited from earlier work"}, "[5]": {"details": "289 µg OTA/kg body weight/48 h for up to 6 weeks; cited from earlier work"}}, "note": "Read-outs that look alike come from different tables or passages of the source.", "data": [{"smiles": "C[C@@H]1Cc2c(Cl)cc(C(=O)N[C@@H](Cc3ccccc3)C(=O)O)c(O)c2C(=O)O1", "note": "[OTA, Ochratoxin A]", "values": [{"measurement": "Papp A→B", "setting": "in vitro", "value": "0.38 ± 0.08", "unit": "×10⁻⁶ cm/s"}, {"measurement": "amount in the apical compartment after 48 h, of initially applied amount", "setting": "PBCEC monolayer", "value": "96 ± 7", "unit": "%"}, {"measurement": "amount transferred to the basolateral compartment after 48 h, of initially applied amount", "setting": "PBCEC monolayer", "value": "14 ± 3", "unit": "%"}, {"measurement": "dehydrogenase activity compared to the negative control", "setting": "PBCEC [1]; 10 nM, 48 h, CCK-8, n = 18", "value": "112 ± 12", "unit": "%"}, {"measurement": "cellular morphology", "setting": "PBCEC [2]; 100 nM and lower concentrations", "value": "no morphological changes"}, {"measurement": "cellular morphology", "setting": "PBCEC [2]; 10 µM", "value": "very similar morphological changes of the PBCEC as they were observed for 10 µM T-2 toxin"}, {"measurement": "mean OTA concentration in blood plasma", "setting": "[3]", "value": "0.25 ± 0.03", "unit": "ng/mL"}, {"measurement": "mean whole blood concentration of OTA", "setting": "[4]", "value": "0.21 ± 0.066", "unit": "ng/mL"}, {"measurement": "concentration in brain tissue", "setting": "[5]", "value": "up to 94 ± 16 ng/g"}]}, {"smiles": "Cc1c(O)c(C(=O)O)c(O)c2c1[C@H](C)[C@@H](C)OC2=O", "note": "[DHCIT, dihydrocitrinone]", "values": [{"measurement": "Papp A→B", "setting": "in vitro", "value": "0.51 ± 0.14", "unit": "×10⁻⁶ cm/s"}, {"measurement": "amount in the apical compartment after 48 h, of initially applied amount", "setting": "PBCEC monolayer", "value": "87 ± 13", "unit": "%"}, {"measurement": "amount transferred to the basolateral compartment after 48 h, of initially applied amount", "setting": "PBCEC monolayer", "value": "14 ± 3", "unit": "%"}, {"measurement": "cytotoxic or barrier-weakening (adverse) effects", "setting": "PBCEC [1]", "value": "no adverse effects"}, {"measurement": "effect on cellular viability", "setting": "PBCEC [1]; 48 h", "value": "neither altered the cellular viability"}, {"measurement": "cellular morphology", "setting": "PBCEC [2]; 10 µM", "value": "unremarkable"}]}, {"smiles": "CC1=C2C(=CO[C@H](C)[C@H]2C)C(O)=C(C(=O)O)C1=O", "note": "[CIT, Citrinin]", "values": [{"measurement": "Papp A→B", "setting": "in vitro", "value": "1.79 ± 0.4", "unit": "×10⁻⁶ cm/s"}, {"measurement": "amount in the apical compartment after 48 h, of initially applied amount", "setting": "PBCEC monolayer", "value": "67 ± 3", "unit": "%"}, {"measurement": "amount transferred to the basolateral compartment after 48 h, of initially applied amount", "setting": "PBCEC monolayer", "value": "40 ± 4", "unit": "%"}, {"measurement": "permeability relative to the negative control 14C sucrose (factor)", "setting": "PBCEC monolayer; pig", "value": "ca. 4"}, {"measurement": "cytotoxic or barrier-weakening (adverse) effects", "setting": "PBCEC [1]", "value": "no adverse effects"}, {"measurement": "effect on cellular viability", "setting": "PBCEC [1]; 48 h", "value": "neither altered the cellular viability"}, {"measurement": "cellular morphology", "setting": "PBCEC [2]; 10 µM", "value": "unremarkable"}]}, {"smiles": "C[C@@H]1Cc2c(Cl)cc(C(=O)O)c(O)c2C(=O)O1", "note": "[OTα, ochratoxin α]", "values": [{"measurement": "Papp A→B", "setting": "in vitro", "value": "0.68 ± 0.15", "unit": "×10⁻⁶ cm/s"}, {"measurement": "amount in the apical compartment after 48 h, of initially applied amount", "setting": "PBCEC monolayer", "value": "86 ± 6", "unit": "%"}, {"measurement": "amount transferred to the basolateral compartment after 48 h, of initially applied amount", "setting": "PBCEC monolayer", "value": "19 ± 4", "unit": "%"}, {"measurement": "cytotoxic or barrier-weakening (adverse) effects", "setting": "PBCEC [1]", "value": "no adverse effects"}, {"measurement": "effect on cellular viability", "setting": "PBCEC [1]; 48 h", "value": "neither altered the cellular viability"}, {"measurement": "cellular morphology", "setting": "PBCEC [2]; 10 µM", "value": "unremarkable"}, {"measurement": "mean total OTα level in blood plasma", "setting": "[3]", "value": "2.99 ± 2.24", "unit": "ng/mL"}]}]}
